Laboratory results: PubChem BioAssay (NCI)
Values joined by “and” are separate entries in the source; they are usually repeats but may differ in a detail not shown here. Equal values may be shown once.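 A five-concentration, 48-hour dose response in 96-well plates underlies each endpoint, interpolated linearly between surrounding concentrations. GI50 marks 50% less growth. TGI: concentration producing complete growth inhibition.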

Tests used:
Experiment in all cases: NCI tumour cell line growth inhibition, 48 h
[1] = system: SNB-19 CNS
[2] = system: MDA-MB-231 breast
[3] = system: HOP-18 NSCLC
[4] = system: SK-OV-3 ovarian
[5] = system: MCF7 breast
[6] = system: UACC-62 melanoma
[7] = system: HCC-2998 colon
[8] = system: M19-MEL melanoma
[9] = system: DMS 273 small cell lung
[10] = system: M14 melanoma
[11] = system: A498 renal
[12] = system: NCI-H522 lung
[13] = system: DU-145 prostate
[14] = system: KM20L2 colon
[15] = system: MALME-3M melanoma
[16] = system: 786-0 renal
[17] = system: HT29 colon
[18] = system: COLO 205 colon
[19] = system: CAKI-1 renal
[20] = system: HS 578T breast
[21] = system: P388/ADR leukemia
[22] = system: SK-MEL-5 melanoma
[23] = system: U251 CNS
[24] = system: UO-31 renal
[25] = system: SNB-78 CNS
[26] = system: MDA-N
[27] = system: OVCAR-3 ovarian
[28] = system: DMS 114 small cell lung
[29] = system: RPMI-8226 leukemia
[30] = system: HCT-15 colon
[31] = system: SF-539 CNS
[32] = system: SF-295 CNS
[33] = system: CCRF-CEM leukemia
[34] = system: BT-549 breast
[35] = system: MDA-MB-435
[36] = system: SF-268 CNS
[37] = system: MOLT-4 leukemia
[38] = system: NCI/ADR-RES ovarian
[39] = system: SW-620 colon
[40] = system: OVCAR-4 ovarian
[41] = system: NCI-H226 lung
[42] = system: RXF 393 renal
[43] = system: OVCAR-5 ovarian
[44] = system: SR leukemia
[45] = system: ACHN renal
[46] = system: IGROV1 ovarian
[47] = system: NCI-H460 lung
[48] = system: OVCAR-8 ovarian
[49] = system: SK-MEL-2 melanoma
[50] = system: SK-MEL-28 melanoma
[51] = system: EKVX NSCLC
[52] = system: T-47D breast

CCN(CC)CCOc1cccc2nc3c(cc12)Cn1c-3cc2c(c1=O)COC(=O)C2(O)CC (centres undefined)
GI50 [1]: 0.329 µM and 0.87 µM
TGI [1]: 30.6 µM and > 58.1 µM
GI50 [2]: 19.8 µM
TGI [2]: 46.4 µM
GI50 [3]: 2.34 µM and 2.65 µM
TGI [3]: 9.93 µM and 18.9 µM
GI50 [4]: 4.39 µM
TGI [4]: > 43.4 µM
GI50 [5]: 0.182 µM and 0.449 µM
TGI [5]: 14.9 µM and 22.4 µM
GI50 [6]: 0.147 µM and 0.273 µM
TGI [6]: 0.955 µM and 1.56 µM
GI50 [7]: 7.1 µM
TGI [7]: 21.8 µM
GI50 [8]: 3.74 µM and 2.38 µM
TGI [8]: 18.5 µM and 17 µM
GI50 [9]: 0.086 µM and 0.33 µM
TGI [9]: 1.58 µM and 11.8 µM
GI50 [10]: 1.11 µM
TGI [10]: 11.5 µM
GI50 [11]: 2.13 µM and 3.91 µM
TGI [11]: 6.74 µM and 18.2 µM
GI50 [12]: 7.54 µM and 1.36 µM
TGI [12]: 23.1 µM and 14.5 µM
GI50 [13]: 0.423 µM
TGI [13]: 3.77 µM
GI50 [14]: 2 µM
TGI [14]: 14.4 µM
GI50 [15]: 11.1 µM and 12.3 µM
TGI [15]: 24.6 µM and 25 µM
GI50 [16]: 0.595 µM
TGI [16]: 11.7 µM
GI50 [17]: 2.19 µM and 2.44 µM
TGI [17]: 12.7 µM and 13.5 µM
GI50 [18]: 6.58 µM and 1.94 µM
TGI [18]: 21.8 µM and 30.5 µM
GI50 [19]: 0.889 µM
TGI [19]: 13.8 µM
GI50 [20]: 83.9 µM
TGI [20]: > 100 µM
GI50 [21]: 2.56 µM
TGI [21]: 8.27 µM
GI50 [22]: 1.08 µM
TGI [22]: 6.31 µM
GI50 [23]: 0.0867 µM and 0.358 µM
TGI [23]: 1.43 µM and 11.1 µM
GI50 [24]: 1.8 µM and 3.19 µM
TGI [24]: 8.7 µM and 11.9 µM
GI50 [25]: 14.1 µM
TGI [25]: 80.2 µM
GI50 [26]: 13 µM
TGI [26]: 35.1 µM
GI50 [27]: 5.64 µM and 9.73 µM
TGI [27]: 20.3 µM and 25.9 µM
GI50 [28]: 0.139 µM and 0.206 µM
GI50 [29]: 1.47 µM
TGI [29]: 22.5 µM
GI50 [30]: 5.14 µM and 8.13 µM
TGI [30]: 26.1 µM and 37.8 µM
GI50 [31]: 0.267 µM and 0.774 µM
TGI [31]: 1.47 µM and 3.93 µM
GI50 [32]: 0.261 µM and 0.691 µM
TGI [32]: 5.19 µM and 9.4 µM
GI50 [33]: 0.0125 µM and 0.0735 µM
TGI [33]: 0.791 µM
GI50 [34]: 2.99 µM
TGI [34]: 17.2 µM
GI50 [35]: 12.2 µM
TGI [35]: 28.2 µM
GI50 [36]: 0.212 µM and 0.188 µM
TGI [36]: 11.7 µM
GI50 [37]: 0.103 µM
GI50 [38]: 0.886 µM and 3.07 µM
TGI [38]: 18 µM and 19.1 µM
GI50 [39]: 2.17 µM and 4.33 µM
TGI [39]: 29.7 µM and 36.6 µM
GI50 [40]: 11.2 µM and 8.77 µM
TGI [40]: 25.9 µM and 29.1 µM
GI50 [41]: 0.963 µM and 2.23 µM
TGI [41]: 10.9 µM and 16.8 µM
GI50 [42]: 1.4 µM and 10.6 µM
TGI [42]: 6.08 µM and 28.7 µM
GI50 [43]: 0.45 µM and 3.46 µM
TGI [43]: 3.81 µM and 32.7 µM
GI50 [44]: 0.169 µM
TGI [44]: 0.716 µM
GI50 [45]: 0.675 µM
TGI [45]: > 100 µM
GI50 [46]: 5.77 µM and 4.63 µM
TGI [46]: 21.6 µM and > 44.8 µM
GI50 [47]: 0.0754 µM and 0.282 µM
TGI [47]: 1.88 µM and 11.8 µM
GI50 [48]: 1.24 µM and 1.47 µM
TGI [48]: 30.8 µM and 15.4 µM
GI50 [49]: 12.3 µM and 17.9 µM
TGI [49]: 25.3 µM and 39.6 µM
GI50 [50]: 7.51 µM and 12.3 µM
TGI [50]: 20.7 µM and 30 µM
GI50 [51]: 7.37 µM
TGI [51]: > 40 µM
GI50 [52]: 0.739 µM
TGI [52]: 7.25 µM

CCCCCCCCCCCC[C@@H](O)[C@H]1CC[C@H]([C@H](O)CCCC[C@H](O)CCCCC[C@@H](O)CC2=C[C@H](C)OC2=O)O1
GI50 [1]: 2.32 µM
TGI [1]: 5.45 µM and 11.4 µM
GI50 [2]: 2.86 µM
TGI [2]: 7.56 µM and 10.6 µM
TGI [3]: 15.5 µM
TGI [4]: 11.4 µM
TGI [5]: 5.13 µM and 6.79 µM
TGI [6]: 5.14 µM and 6.06 µM
TGI [7]: 10.6 µM
TGI [8]: 5.71 µM
TGI [9]: 5.55 µM
TGI [10]: 5.25 µM and 10.4 µM
GI50 [11]: 5.27 µM
TGI [11]: 9.41 µM and 13.6 µM
TGI [12]: 4.45 µM
GI50 [13]: 7.93 µM
TGI [13]: 21.3 µM
TGI [14]: 8.96 µM
GI50 [15]: 3.49 µM
TGI [15]: 8.59 µM
TGI [16]: 6.42 µM and 8.45 µM
TGI [17]: 5.64 µM and 8.54 µM
GI50 [18]: 3.47 µM
TGI [18]: 3.52 µM
GI50 [19]: 5.39 µM
TGI [19]: 10.5 µM
GI50 [20]: 4.22 µM
TGI [20]: 7.06 µM and 22.1 µM
TGI [21]: 7.53 µM
GI50 [22]: 0.275 µM
TGI [22]: 7.16 µM and 2.21 µM
GI50 [23]: 3.31 µM
TGI [23]: 11.6 µM
GI50 [24]: 1.3 µM
TGI [24]: 5.11 µM and 7.51 µM
TGI [25]: 15.2 µM
TGI [26]: 7.63 µM and 15.4 µM
GI50 [27]: 1.41 µM and 1.56 µM
TGI [27]: 2.71 µM and 4.05 µM
TGI [28]: 0.371 µM
GI50 [29]: 1.56 µM and 0.888 µM
TGI [29]: 7.92 µM and 7.46 µM
GI50 [30]: 2.83 µM
TGI [30]: 5.8 µM and 9.73 µM
GI50 [31]: 4.18 µM
TGI [31]: 5.59 µM and 11.2 µM
TGI [32]: 5.31 µM and 8.02 µM
GI50 [33]: 1.98 µM
TGI [33]: 7.58 µM
TGI [34]: 24 µM
GI50 [35]: 2.26 µM
TGI [35]: 5.43 µM and 12 µM
GI50 [36]: 2.38 µM
TGI [36]: 6.01 µM and 11.2 µM
GI50 [37]: 1.74 µM and 0.891 µM
TGI [37]: 4.06 µM
TGI [38]: 5.42 µM and 11.2 µM
TGI [39]: 6.58 µM and 12.9 µM
TGI [40]: 10.6 µM
GI50 [41]: 1.53 µM
TGI [41]: 3.54 µM and 18.2 µM
TGI [42]: 8.02 µM
GI50 [43]: 1.59 µM and 5.77 µM
TGI [43]: 3.05 µM and 17.9 µM
GI50 [44]: 1.11 µM
TGI [44]: 3.87 µM
GI50 [45]: 2.74 µM
TGI [45]: 6.53 µM and 14.9 µM
GI50 [46]: 3.58 µM
TGI [46]: 6.05 µM and 8.67 µM
GI50 [47]: 2.4 µM
TGI [47]: 5.16 µM and 11.7 µM
GI50 [48]: 3.09 µM
TGI [48]: 5.8 µM and 20.3 µM
GI50 [49]: 1.3 µM
TGI [49]: 2.6 µM and 1.68 µM
GI50 [50]: 3.77 µM
TGI [50]: 6.19 µM and 9.93 µM
GI50 [51]: 2.17 µM
TGI [51]: 6.88 µM and 12.5 µM
GI50 [52]: 1.74 µM
TGI [52]: 14.1 µM
